Source: PMC10247784, “Physiological activation of human and mouse bitter taste receptors by bile acids” (Communications Biology, 2023)

Target: T1, mouse Tas2r108 (Mus musculus, UniProt Q9JKT3)
T1 construct: expressed in transfected cells; host or cells: HEK293T-Gα16gust44
T1 sequence (Q9JKT3 1-297): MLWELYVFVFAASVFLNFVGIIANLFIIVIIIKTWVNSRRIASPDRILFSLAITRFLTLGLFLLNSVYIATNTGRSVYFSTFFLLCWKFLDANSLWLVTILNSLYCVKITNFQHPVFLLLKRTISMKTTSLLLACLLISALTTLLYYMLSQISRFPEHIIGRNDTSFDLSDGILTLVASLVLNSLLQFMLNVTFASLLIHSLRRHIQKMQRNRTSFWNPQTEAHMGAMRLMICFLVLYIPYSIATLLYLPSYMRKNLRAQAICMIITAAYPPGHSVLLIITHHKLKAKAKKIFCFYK
Assay: Calcium imaging assay (FLIPR), HEK293T-Gα16gust44 cells transfected with mouse Tas2r108
Format: cell-based
Conditions: for Δ F/F: Tas2r108
How it was run: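 HEK293T-Gα16gust44 cells transiently transfected with the bitter-taste receptor, loaded next day with Fluo-4-AM plus 2.5 mM probenecid, and challenged with bile acids on FLIPR Tetra. Signals mock-subtracted, expressed as ΔF/F vs buffer.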

`C[C@H](CCC(=O)NCCS(=O)(=O)O)[C@H]1CC[C@H]2[C@@H]3[C@H](O)C[C@@H]4C[C@H](O)CC[C@]4(C)[C@H]3C[C@H](O)[C@]12C` [Taurocholic Acid, taurocholic acid] was tested, and the “Δ F/F” value (conc. 0,01 mM) was 0.0164, the “Δ F/F” value (conc. 0,1 mM) was 0.02829 and the “Δ F/F” value (conc. 0,03 mM) was 0.01249. For the same compound, the “Δ F/F” value (conc. 0,3 mM) was 0.06351, the “Δ F/F” value (conc. 0,001 mM) was 0.009911 and the “Δ F/F” value (conc. 1 mM) was 0.1676. The “Δ F/F” value (conc. 0,003 mM) was 0.0148, the RLU (Time 0 s) was 0 RLU and the RLU (Time 2 s) was -20.2593 RLU. For the same compound, the RLU (Time 4 s) was -40.462 RLU, the RLU (Time 6 s) was -30.0161 RLU and the RLU (Time 8 s) was -12.374 RLU. The RLU (Time 12 s) was -13.3496 RLU, the RLU (Time 14 s) was -6.544 RLU and the RLU (Time 16 s) was -15.3343 RLU. For the same compound, the RLU (Time 18 s) was -11.3649 RLU, the RLU (Time 18.781 s) was 0.4416 RLU and the RLU (Time 20.781 s) was -36.0442 RLU. For the same compound, the RLU (Time 22.781 s) was -43.651 RLU, the RLU (Time 24.781 s) was -41.1365 RLU and the RLU (Time 26.781 s) was -18.6 RLU. The RLU (Time 28.781 s) was 11.2728 RLU, the RLU (Time 30.781 s) was 33.5132 RLU and the RLU (Time 32.781 s) was 71 RLU. For the same compound, the RLU (Time 34.781 s) was 95.3158 RLU, the RLU (Time 36.781 s) was 97.2719 RLU and the RLU (Time 38.781 s) was 144.173 RLU. It also gave an RLU (Time 40.781 s) of 134.881 RLU, an RLU (Time 42.781 s) of 146.815 RLU and an RLU (Time 44.781 s) of 188.478 RLU. It also gave an RLU (Time 46.781 s) of 187.465 RLU, an RLU (Time 48.781 s) of 214.327 RLU and an RLU (Time 50.781 s) of 211.162 RLU. The RLU (Time 52.781 s) was 236.861 RLU, the RLU (Time 54.781 s) was 237.067 RLU and the RLU (Time 56.781 s) was 230.295 RLU. The RLU (Time 58.781 s) was 253.142 RLU, the RLU (Time 60.781 s) was 220.824 RLU and the RLU (Time 62.781 s) was 245.001 RLU. The RLU (Time 64.781 s) was 248.53 RLU, the RLU (Time 66.781 s) was 284.462 RLU and the RLU (Time 68.781 s) was 254.576 RLU. The RLU (Time 70.781 s) was 279.831 RLU, the RLU (Time 72.781 s) was 269.677 RLU and the RLU (Time 74.781 s) was 263.013 RLU. The RLU (Time 76.781 s) was 268.161 RLU, the RLU (Time 78.781 s) was 271.517 RLU and the RLU (Time 80.781 s) was 261.286 RLU. For the same compound, the RLU (Time 82.781 s) was 284.591 RLU, the RLU (Time 84.781 s) was 263.187 RLU and the RLU (Time 86.781 s) was 264.054 RLU. For the same compound, the RLU (Time 88.781 s) was 257.931 RLU, the RLU (Time 90.781 s) was 266.719 RLU and the RLU (Time 92.781 s) was 280.373 RLU. For the same compound, the RLU (Time 94.781 s) was 260.776 RLU, the RLU (Time 96.781 s) was 264.943 RLU and the RLU (Time 98.781 s) was 262.119 RLU. For the same compound, the RLU (Time 100.781 s) was 242.991 RLU, the RLU (Time 102.781 s) was 248.884 RLU and the RLU (Time 104.781 s) was 234.786 RLU. It also gave an RLU (Time 106.781 s) of 246.521 RLU, an RLU (Time 108.781 s) of 245.379 RLU and an RLU (Time 110.781 s) of 221.773 RLU. The RLU (Time 112.781 s) was 255.593 RLU, the RLU (Time 114.781 s) was 236.786 RLU and the RLU (Time 116.781 s) was 246.038 RLU. It also gave an RLU (Time 118.781 s) of 236.543 RLU, an RLU (Time 120.781 s) of 242.472 RLU and an RLU (Time 122.781 s) of 225.877 RLU. For the same compound, the RLU (Time 124.781 s) was 231.718 RLU, the RLU (Time 126.781 s) was 218.383 RLU and the RLU (Time 128.781 s) was 219.672 RLU. For the same compound, the RLU (Time 130.781 s) was 215.513 RLU, the RLU (Time 132.781 s) was 219.132 RLU and the RLU (Time 134.781 s) was 219.383 RLU. For the same compound, the RLU (Time 136.781 s) was 199.62 RLU, the RLU (Time 137.562 s) was 222.887 RLU and the RLU (Time 143.562 s) was 216.156 RLU. For the same compound, the RLU (Time 149.562 s) was 209.286 RLU, the RLU (Time 155.562 s) was 217.366 RLU and the RLU (Time 161.562 s) was 220.781 RLU. For the same compound, the RLU (Time 167.562 s) was 219.02 RLU, the RLU (Time 173.562 s) was 233.427 RLU and the RLU (Time 179.562 s) was 239.06 RLU. The RLU (Time 185.562 s) was 225.962 RLU, the RLU (Time 191.562 s) was 229.727 RLU and the RLU (Time 197.562 s) was 239.899 RLU. For the same compound, the RLU (Time 203.562 s) was 214.938 RLU, the RLU (Time 209.562 s) was 251.411 RLU and the RLU (Time 215.562 s) was 226.847 RLU. It also gave an RLU (Time 221.562 s) of 216.644 RLU, an RLU (Time 227.562 s) of 259.359 RLU and an RLU (Time 233.562 s) of 219.243 RLU. The RLU (Time 239.562 s) was 236.142 RLU, the RLU (Time 245.562 s) was 237.626 RLU and the RLU (Time 293.562 s) was 221.03 RLU. The RLU (Time 299.562 s) was 234.317 RLU, the RLU (Time 305.562 s) was 241.837 RLU and the RLU (Time 311.562 s) was 254.495 RLU. The RLU (Time 317.562 s) was 265.787 RLU, the RLU (Time 323.562 s) was 251.038 RLU and the RLU (Time 329.562 s) was 233.221 RLU. The RLU (Time 335.562 s) was 247.117 RLU, the RLU (Time 341.562 s) was 273.956 RLU and the RLU (Time 347.562 s) was 268.956 RLU. The RLU (Time 353.562 s) was 264.083 RLU, the RLU (Time 359.562 s) was 275.281 RLU and the “Activation threshold concentration Tas2r108” value (p < 0.01 vs empty vector) was 100 µM.
